Here are results for 17 compounds from patent US8623903B2, “Indolecarboxylic acid derivative having PGD2 receptor antagonistic activity” (Shionogi & Co., Ltd., priority 2005, dated 2014).

Assay [1] relates to OVA asthma model of rat. The assay is described as follows: OVA asthma model of rat: increased hyperresponsive airway (acetylcholine). In kind it is in vivo, Brown Norway (BN) Rats. The settings on record: BN rats, 10 mg/kg p.o. once a day for three days, vs control group, AUC of acetylcholine response curve. As to the method: (§1) Brown Norway (BN) Rats were sensitized by i.p. administration of 0.1 mg/mL of ovalbumin (OVA) and 1 mg of aluminum hydroxide gel. A solution of 1% OVA was aerosolized by ultrasonic nebulizer (NE-U17) and the rats were subjected to inhalation exposure of the aerosol for 30 minutes in an exposing chamber 12, 19, 26 and 33 days after the sensitization. One hour before the 4th exposure of the antigen, compounds of the present invention were administered in a dose of 10 mg/kg p.o. once a day for three days consecutively. In a control group, 0.5% of methyl cellulose was administered in place of the compound of the present invention.
Under pentobarbital anesthesia (80 mg/kg, i.p.), acetylcholine (3.9, 7.8, 15.6, 31.3, 62.5, 125, 250 and 500 μg/kg) was injected to jugular vein of the rats successively from a lower dose at intervals of 5 minutes three days after the fourth exposure to the antigen, and immediate contractile reaction of airways (an increase of insufflation pressure) was measured by a modified method of Konnzett & Rössler. Inhibition rate of increased hyperresponsive airway against the control group was calculated based on area under the curve (AUC) obtained from concentration-response curve of acetylcholine.

For assay [2], the target named is T1, DP receptor (Homo sapiens (Human), UniProt Q13258). The assay is described as follows: cAMP assay with washed platelets (DP inhibitory activity in vitro). In kind it is cell-based. The settings on record: 100 nM of PGD2, cAMP by HTRF, read-out: IC50 (50% DP-inhibitory concentration in the cAMP assay). As to the method: 1) Preparation of Platelet and a Method of cAMP Assay
30 mL of peripheral blood was collected from a healthy volunteer using a syringe containing one ninth amount of 3.8% sodium citrate. After being centrifuged at 180 g for 10 minutes at room temperature, a supernatant was collected and used as Platelet Rich Plasma (PRP). The resulting PRP was washed with wash buffer and centrifuged three times (Washed Platelet: WP) and platelets were counted by a microcell counter. WP was added to a plate in amount of 1.5×10^8/assay and the plate was treated with 3-isobutyl-1-methylxanthin (IBMX; 0.5 mM) for 5 minutes. A reaction was initiated by adding 100 nM of PGD2 5 min after an addition of a test compound. The reaction was terminated with an addition of 1N hydrochloric acid after 2 minutes and the cells were destructed using 12% triton X-100. An amount of cAMP in the supernatant was assayed by Homogeneous Trangient Fluorescence (HTRF)

Assay [3] concerns OVA asthma model of rat. Put plainly: OVA asthma model of rat: infiltration of inflammatory cells in bronchoalveolar washings. The class given is in vivo, Brown Norway (BN) Rats. The settings on record: BN rats, 10 mg/kg p.o. once a day for three days, total cell number in bronchoalveolar washings vs control group. Here is the method:
as §1
(§2) After the measurement of increased hyperresponsive airway was completed, bronchoalveoli of the rats were washed with 5 mL of saline three times. Total cell number in the washings was counted by a hemacytometer under light microscope, and inhibition rates of infiltration of inflammatory cells against the control group were calculated. Further, mucin in the airway lavage fluid was measured by ELISA method using jacalin, a mucin-binding lectin, and the inhibition rates of mucus-secretion against the control group were calculated.

In assay [4] the target is T1, DP receptor. Put plainly: Receptor binding assay, [3H]-PGD2, platelet membrane. As to the method:
2) Receptor Binding Assay
A prepared WP was homogenated and a membrane fraction was collected with high-speed centrifugation. A compound of the present invention was added to the plate and [^3H]-PGD2 was also added. A platelet membrane, a protein concentration is 2 mg/mL, was added and mixed in the plate, and placed on ice for 2 hours. The reaction solution was transferred to a low protein-adsorptive filter and washed with a wash solution eight times using a cell harvester. After the final washing, water was removed sufficiently, and scintillator was added. DP inhibitory activity was investigated by measuring [^3H] by using Micro Beta.

For assay [5], the system named is OVA asthma model of rat. The assay is described as follows: OVA asthma model of rat: mucus-secretion (mucin in airway lavage fluid, ELISA). In kind it is in vivo, Brown Norway (BN) Rats. The settings on record: BN rats, 10 mg/kg p.o. once a day for three days, mucin in airway lavage fluid by ELISA vs control group. Here is the method: as §1, §2

T1 sequence (Q13258 whole entry): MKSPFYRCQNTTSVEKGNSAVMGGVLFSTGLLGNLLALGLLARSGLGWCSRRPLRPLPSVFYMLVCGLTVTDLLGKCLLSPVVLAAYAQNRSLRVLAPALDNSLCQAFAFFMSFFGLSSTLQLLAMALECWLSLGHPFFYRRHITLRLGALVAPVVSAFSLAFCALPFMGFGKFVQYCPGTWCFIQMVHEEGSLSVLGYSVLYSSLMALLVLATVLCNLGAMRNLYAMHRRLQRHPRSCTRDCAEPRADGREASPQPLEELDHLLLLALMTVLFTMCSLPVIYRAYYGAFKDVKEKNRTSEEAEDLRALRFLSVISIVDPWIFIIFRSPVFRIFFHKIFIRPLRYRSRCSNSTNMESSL

For `CC(C)Oc1ccc(S(=O)(=O)N2CCC(n3cc(CC(=O)O)c4ccccc43)CC2)cc1` [Compound I-1], the “inhibition rate (%) airway hyperresponsiveness” value in the assay with OVA asthma model of rat [1] came to 43%. Further, the IC50 on DP receptor [2] worked out at 4.7 nM. In addition, the “inhibition rate (%) infiltration of inflammatory cells” value (“inhibition rate (%) infiltration” below) with OVA asthma model of rat [3] is on record as 58%. This compound also gave a Ki on DP receptor [4] of 7.7 nM. In addition, the “inhibition rate (%) mucus-secretion” value in the assay on OVA asthma model of rat [5] is given as 52%. For the compound `CC(C)Oc1ccc(S(=O)(=O)N2CCC(n3cc(CC(=O)O)c4cc(Cl)ccc43)CC2)cc1` [Compound I-5], the IC50 at DP receptor [2] came out at 4.1 nM. On DP receptor [4], this compound showed a Ki of 22 nM. As for `CCOc1ccc(S(=O)(=O)N2CCC(n3cc(CC(=O)O)c4cc(Cl)ccc43)CC2)cc1` [Compound I-6], the IC50 at DP receptor [2] worked out at 4.8 nM. Still for that read-out and setting: for `CC(C)Oc1ccc(S(=O)(=O)N2CCC(n3cc(CC(=O)O)c4cc(Cl)ccc43)C2)cc1` (centres unmarked) [Compound I-7] the value was 1.8 nM. Still for that read-out and setting: then `CCOc1ccc(S(=O)(=O)N2CCC(n3cc(CC(=O)O)c4cc(Cl)ccc43)C2)cc1` (centres unmarked) [Compound I-8], with 4.9 nM; and `CC(C)Oc1ccc(S(=O)(=O)N2CCC(n3cc(CC(=O)O)c4ccc(Cl)cc43)CC2)cc1` [Compound I-9], with 2 nM. On the same count and under the same terms, for `CCOc1ccc(S(=O)(=O)N2CCC(n3cc(CC(=O)O)c4ccc(Cl)cc43)CC2)cc1` [Compound I-10] the value was 6.9 nM.

Regarding `CC(C)Oc1ccc(S(=O)(=O)N2CCC(n3cc(CC(=O)O)c4ccc(Cl)cc43)C2)cc1` (centres unmarked) [Compound I-11], the “inhibition rate (%) airway hyperresponsiveness” value in the assay with OVA asthma model of rat [1] is listed as 77%. Further, on DP receptor [2], the IC50 worked out at 4.9 nM. Moreover, the “inhibition rate (%) infiltration” value with OVA asthma model of rat [3] is listed as 56%. The “inhibition rate (%) mucus-secretion” value with OVA asthma model of rat [5] is 30%. Take `CCOc1ccc(S(=O)(=O)N2CCC(n3cc(CC(=O)O)c4ccc(Cl)cc43)C2)cc1` (centres unmarked) [Compound I-12]: on DP receptor [2], the IC50 was 6.9 nM. For the compound `CC(C)Oc1ccc(S(=O)(=O)N2CCC(n3cc(CC(=O)O)c4cc(F)ccc43)CC2)cc1` [Compound I-14], the IC50 at DP receptor [2] was 2.2 nM. At DP receptor [4], this compound registered a Ki of 5.6 nM. Regarding `CC(C)Oc1ccc(S(=O)(=O)N2CCC(n3cc(CC(=O)O)c4ccc(F)cc43)CC2)cc1` [Compound I-16], the IC50 at DP receptor [2] came to 1.3 nM. The same measure, in the same setting: then `CC(C)Oc1ccc(S(=O)(=O)N2CC[C@@H](n3cc(CC(=O)O)c4ccccc43)C2)cc1` [Compound I-20], with 3.8 nM; and `CC(C)Oc1ccc(S(=O)(=O)N2CC[C@H](n3nc(CC(=O)O)c4cc(Cl)ccc43)C2)cc1` [Compound I-21], with 3 nM. As for `CC(C)Oc1ccc(S(=O)(=O)N2CCC(n3cc(C(=O)O)c4ccccc43)CC2)cc1` [Compound I-23], the “inhibition rate (%) airway hyperresponsiveness” value in the assay with OVA asthma model of rat [1] amounted to 46%. Further, the IC50 on DP receptor [2] is 1.6 nM. Moreover, the “inhibition rate (%) infiltration” value in the assay with OVA asthma model of rat [3] amounted to 79%. At DP receptor [4], this compound yielded a Ki of 1.4 nM. The “inhibition rate (%) mucus-secretion” value in the assay with OVA asthma model of rat [5] amounted to 72%. On to `CC(C)Oc1ccc(S(=O)(=O)N2CC[C@@H](n3cc(CC(=O)O)c4ccc(Cl)cc43)C2)cc1` [Compound I-30], for which, at DP receptor [2], the IC50 came to 1.2 nM. At DP receptor [4], this compound came in with a Ki of 5.4 nM. As to `CC(C)Oc1ccc(S(=O)(=O)N2CC[C@@H](n3cc(CC(=O)O)c4ccc(F)cc43)C2)cc1` [Compound I-31], at DP receptor [2], the IC50 is 2.9 nM. The compound also gave an inhibition constant (Ki) at DP receptor [4] of 4.3 nM. In the case of `CC(C)Oc1ccc(S(=O)(=O)N2CC[C@@H](n3cc(C(=O)O)c4ccc(Cl)cc43)C2)cc1` [Compound I-32], the IC50 on DP receptor [2] worked out at 7 nM.
